# In patent publication US10174013B2, “Benzimidazole derivatives as kinase inhibitors” (SELVITA S.A., priority 2012, dated 2019):
# Where two headings read alike, the source gives them in different places.
# Key:
# [1] = target: Pim-1 (Homo sapiens (Human), UniProt P11309); assay: ADP-Glo Kinase Assay, Pim-1; format: biochemical; details: 1 μM compound; for inhibition at 1 µM: read-out: Pim-1 % INH (1 μM)
# Outline: (§1)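 Compounds were diluted in assay buffer to 1000 nM and incubated with kinase, substrate and ATP at apparent Km. Remaining ATP was depleted, ADP converted to ATP and detected by luciferase; percent inhibition came from normalized luminescence.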
# [2] = target: Pim-2 (Homo sapiens (Human), UniProt Q9P1W9); assay: ADP-Glo Kinase Assay, Pim-2; format: biochemical; details: 1 μM compound; for inhibition at 1 µM: read-out: Pim-2 % INH (1 μM)
# Outline: as §1
# [3] = target: Pim-3 (Homo sapiens (Human), UniProt Q86V86); assay: ADP-Glo Kinase Assay, Pim-3; format: biochemical; details: 1 μM compound; for inhibition at 1 µM: read-out: Pim-3 % INH (1 μM)
# Outline: as §1
# [4] = target: FLT3wt (Homo sapiens (Human), UniProt P36888); assay: ADP-Glo Kinase Assay, Flt3 wt; format: biochemical; details: 1 μM compound; for inhibition at 1 µM: read-out: Flt3wt % INH (1 μM)
# Outline: as §1
# [5] = target: CDK2/E (Homo sapiens (Human), UniProt P24941); assay: ADP-Glo Kinase Assay, CDK2/E; format: biochemical; details: 1 μM compound; for inhibition at 1 µM: read-out: CDK2/E % INH (1 μM)
# Outline: as §1
# [6] = target: DYRK1 (Homo sapiens (Human), UniProt Q13627); assay: ADP-Glo Kinase Assay, DYRK1; format: biochemical; details: 1 μM compound; for inhibition at 1 µM: read-out: DYRK1A % INH (1 μM)
# Outline: as §1
# [7] = test system: MV4-11 cells; assay: Growth inhibition, MTS assay, MV4-11; format: cell-based, Human; details: MTS cell viability, read-out: MV4-11 ED50
# [8] = test system: HEL92 cells; assay: Growth inhibition, MTS assay, HEL92; format: cell-based, Human; details: MTS cell viability, read-out: HEL92 ED50
# [9] = test system: HepG2 cells; assay: Growth inhibition, MTS assay, HepG2; format: cell-based, Human; details: MTS cell viability, read-out: HepG2 ED50
# [10] = test system: Jeko-1 cells; assay: Growth inhibition, MTS assay, Jeko-1; format: cell-based, Human; details: 72 hours, MTS cell viability, read-out: Jeko-1 ED50
# [11] = test system: SW-480 cells; assay: Growth inhibition, MTS assay, SW-480; format: cell-based, Human; details: 72 hours, MTS cell viability, read-out: SW-480 ED50
# [12] = target: hERG potassium channel (Homo sapiens (Human), UniProt Q12809); assay: hERG automated patch clamp assay (QPatch HT)
# Outline: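 Automated whole-cell patch clamp of hERG current in mammalian cells at room temperature. Compounds applied at 0.1, 1, 3, 10 and 30 μM, 3 min per concentration, n≥2 cells each.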
# [13] = target: CYP3A4 (Homo sapiens (Human), UniProt P08684); assay: Cytochrome P450 inhibition, fluorescence, CYP3A4; format: in vitro ADME; details: recombinant CYP3A4, fluorescence detection; read-out: CYP inhibition (CYP 3A4 screening, IC50 class)
# Protocol: The assays for cytochrome P450 inhibition facilitate the identification of drug candidates with lower potential for drug-drug interactions (weak enzymes inhibitors). In vitro experiments were conducted to determine whether a drug inhibits a specific CYP enzyme. The experiments comprised the incubation of the drug with probe substrates for the CYP enzymes, wherein the following recombinant cytochrome P450 isoforms were employed: CYP1A2, CYP2C8, CYP2C9, CYP2C19, CYP2D6 and CYP3A4, together with various probe substrates enabling fluorescence detection. The protocol uses a single substrate concentration near the apparent Km and multiple compound concentrations.
# The assay was performed in 96-well microtiter plates. The row designations were A through H and the column designations were 1 through 12. […] Each compound (see Table 6 for tested compounds) was added to the wells in column 1 and serially diluted to the wells in column 8. Wells 9 and 10 were control wells which contained no test compound (therefore no inhibition-full signal is detected.) The wells in columns 11 and 12 were blanks, where STOP solution was added prior to the addition of the enzyme/substrate mix to the NADPH regenerating system (the only signal present in these wells is background noise.) The assay was conducted in a final volume of 0.2 ml per well.
# The stock solutions of the tested compounds were prepared in DMSO at 10 mM concentration. […] After mixing the compounds with solution containing NADPH-cofactors, the mixed plate was preincubated in a 37° C. incubator for at least 10 minutes; next, the fluorescence of compounds using recommended excitation/emission filters was measured in order to eliminate false results originating from autofluorescence of the compounds. In the following step, the enzyme/substrate mix was added to columns 1 through 10 and the plates were incubated at 37° C. for specific times depending on the CYP tested (incubation times ranged from 30 to 45 minutes). After adding STOP SOLUTION to all wells and respective enzyme/substrate mix to the wells in columns 11 and 12, the plate was scanned with a fluorescent plate scanner. The excitation/emission filters used for the specific assays are described in the GenTest Screening Kit instruction manual.
# [14] = test system: MOLM13 cells; assay: Growth inhibition, MTS assay, MOLM13; format: cell-based, Human; details: 72 hours, MTS cell viability, read-out: MOLM 13 ED50
# Excerpt: (§2) The following cell lines, were obtained and used in tests as outlined below: • Human myelomonocytic, biphenotypic leukemia MV4-11 cells (harboring a Flt3-ITD mutation); • Human Acute Myeloid Leukemia MOLM16 cells; • Human Acute Myeloid Leukemia MOLM13 cells (harboring a Flt3-ITD mutation); • Human Myeloid Leukemia KG-1 cells; • Human erythroleukemia HEL92 cells; • Human mantle cell lymphoma Jeko-1 cells; • Human hepatocellular carcinoma HepG2 cells; and • Human colon adenocarcinoma SW-480 cells.
# (§3) The assays were carried out according to the following protocol, which is described as an example for the MV4-11 cells:
# (§4) Ten thousand MV4-11 cells were inoculated into each well of a 96-well microplate (manufactured by Corning Corp.) using Iscove's MDM medium (culture medium) containing 10% fetal calf serum (FCS). The same day, a dimethyl sulfoxide (DMSO) solution of each test compound prepared in a concentration of 10 mmol/L was further diluted with DMSO to the desired concentrations (0.1, 0.5, 1, 2.5, 5 and 10 micromol/L), and the diluted solution was added to each well. The individual wells were further cultured in 5% carbon dioxide at 37° C. for 72 hours. […] Briefly, 10 μl MTS (3-(4,5-Dimethyl-2-thiazolyl)-5-(carboxymethoxyphenyl)-2-(4-sulfophenyl)-2H-tetrazolium was added to each well, and culturing was performed in 5% carbon dioxide at 37° C. for 2 hours. After this incubation and using a microplate spectrophotometer (Synergy 2 multi-mode microplate reader (BioTek)), the absorbance of each well was measured at 490 nm. The value for cells not incubated with a test compound was designated as 100%. By comparing these values with the absorbance difference obtained at the well in which each test compound was added, the cell viability (% viability) after treatment with the test compound was calculated.
# [15] = test system: MOLM16 cells; assay: Growth inhibition, MTS assay, MOLM16; format: cell-based, Human; details: Homo sapiens, MOLM16, 72 h, MTS cell viability, read-out: MOLM 16 ED50
# Excerpt: as §2, §3, §4
# CYP3A4, sequence (P08684 whole entry, canonical isoform): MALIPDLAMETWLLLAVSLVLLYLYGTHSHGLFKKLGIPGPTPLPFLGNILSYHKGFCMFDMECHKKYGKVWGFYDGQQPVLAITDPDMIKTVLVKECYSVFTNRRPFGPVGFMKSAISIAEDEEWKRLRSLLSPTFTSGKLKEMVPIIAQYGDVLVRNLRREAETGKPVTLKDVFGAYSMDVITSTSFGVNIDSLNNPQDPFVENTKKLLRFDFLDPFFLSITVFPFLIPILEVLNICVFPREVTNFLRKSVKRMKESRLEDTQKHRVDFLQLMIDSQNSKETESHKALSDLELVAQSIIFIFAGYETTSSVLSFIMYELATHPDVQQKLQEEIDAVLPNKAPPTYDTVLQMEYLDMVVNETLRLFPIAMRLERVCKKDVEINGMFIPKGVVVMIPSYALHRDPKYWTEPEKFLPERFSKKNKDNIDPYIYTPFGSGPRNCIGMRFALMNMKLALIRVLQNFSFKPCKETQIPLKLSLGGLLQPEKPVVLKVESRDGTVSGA
# FLT3wt, sequence (P36888 27-993): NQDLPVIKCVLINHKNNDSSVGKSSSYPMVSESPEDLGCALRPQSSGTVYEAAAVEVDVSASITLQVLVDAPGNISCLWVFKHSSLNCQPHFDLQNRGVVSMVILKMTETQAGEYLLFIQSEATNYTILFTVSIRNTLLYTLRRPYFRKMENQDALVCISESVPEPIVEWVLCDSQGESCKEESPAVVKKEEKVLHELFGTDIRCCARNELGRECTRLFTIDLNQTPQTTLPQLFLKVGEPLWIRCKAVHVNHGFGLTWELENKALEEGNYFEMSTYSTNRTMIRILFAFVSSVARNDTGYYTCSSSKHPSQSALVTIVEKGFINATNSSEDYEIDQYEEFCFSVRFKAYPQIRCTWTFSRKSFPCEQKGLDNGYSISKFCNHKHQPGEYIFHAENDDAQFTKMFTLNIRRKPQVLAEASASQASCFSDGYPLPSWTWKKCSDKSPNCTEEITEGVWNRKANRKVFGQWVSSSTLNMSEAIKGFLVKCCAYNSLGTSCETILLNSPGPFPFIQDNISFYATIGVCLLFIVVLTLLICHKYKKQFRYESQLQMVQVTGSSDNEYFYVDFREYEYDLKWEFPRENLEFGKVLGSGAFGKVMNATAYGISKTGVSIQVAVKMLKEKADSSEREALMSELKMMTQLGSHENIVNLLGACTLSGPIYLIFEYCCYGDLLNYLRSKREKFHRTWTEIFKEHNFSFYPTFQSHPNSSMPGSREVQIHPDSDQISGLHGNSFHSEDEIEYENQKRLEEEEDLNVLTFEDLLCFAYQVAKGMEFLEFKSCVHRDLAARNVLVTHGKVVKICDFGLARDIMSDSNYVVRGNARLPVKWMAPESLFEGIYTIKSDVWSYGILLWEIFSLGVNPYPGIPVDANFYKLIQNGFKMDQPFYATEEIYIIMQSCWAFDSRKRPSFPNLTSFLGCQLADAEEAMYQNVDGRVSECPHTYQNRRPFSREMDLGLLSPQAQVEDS
# Pim-2, sequence (Q9P1W9 whole entry): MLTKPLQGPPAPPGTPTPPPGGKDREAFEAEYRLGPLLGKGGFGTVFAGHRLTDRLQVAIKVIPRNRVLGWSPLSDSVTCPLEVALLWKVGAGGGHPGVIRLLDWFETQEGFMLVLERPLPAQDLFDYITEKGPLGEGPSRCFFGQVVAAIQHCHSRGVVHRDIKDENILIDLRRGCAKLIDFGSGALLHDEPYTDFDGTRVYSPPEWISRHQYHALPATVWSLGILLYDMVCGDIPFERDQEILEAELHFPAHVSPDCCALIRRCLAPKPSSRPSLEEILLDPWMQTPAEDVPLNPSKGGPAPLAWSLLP
# Pim-1, sequence (P11309 whole entry): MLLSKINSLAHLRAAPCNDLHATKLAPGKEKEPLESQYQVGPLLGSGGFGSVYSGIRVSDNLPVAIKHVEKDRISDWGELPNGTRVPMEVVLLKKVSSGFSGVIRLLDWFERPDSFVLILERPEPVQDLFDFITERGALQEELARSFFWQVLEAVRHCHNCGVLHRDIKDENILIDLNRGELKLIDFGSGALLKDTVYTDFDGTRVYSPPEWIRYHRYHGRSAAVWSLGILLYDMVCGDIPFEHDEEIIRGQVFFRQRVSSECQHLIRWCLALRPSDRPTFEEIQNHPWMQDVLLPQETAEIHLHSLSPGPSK
# hERG potassium channel, sequence (Q12809 whole entry): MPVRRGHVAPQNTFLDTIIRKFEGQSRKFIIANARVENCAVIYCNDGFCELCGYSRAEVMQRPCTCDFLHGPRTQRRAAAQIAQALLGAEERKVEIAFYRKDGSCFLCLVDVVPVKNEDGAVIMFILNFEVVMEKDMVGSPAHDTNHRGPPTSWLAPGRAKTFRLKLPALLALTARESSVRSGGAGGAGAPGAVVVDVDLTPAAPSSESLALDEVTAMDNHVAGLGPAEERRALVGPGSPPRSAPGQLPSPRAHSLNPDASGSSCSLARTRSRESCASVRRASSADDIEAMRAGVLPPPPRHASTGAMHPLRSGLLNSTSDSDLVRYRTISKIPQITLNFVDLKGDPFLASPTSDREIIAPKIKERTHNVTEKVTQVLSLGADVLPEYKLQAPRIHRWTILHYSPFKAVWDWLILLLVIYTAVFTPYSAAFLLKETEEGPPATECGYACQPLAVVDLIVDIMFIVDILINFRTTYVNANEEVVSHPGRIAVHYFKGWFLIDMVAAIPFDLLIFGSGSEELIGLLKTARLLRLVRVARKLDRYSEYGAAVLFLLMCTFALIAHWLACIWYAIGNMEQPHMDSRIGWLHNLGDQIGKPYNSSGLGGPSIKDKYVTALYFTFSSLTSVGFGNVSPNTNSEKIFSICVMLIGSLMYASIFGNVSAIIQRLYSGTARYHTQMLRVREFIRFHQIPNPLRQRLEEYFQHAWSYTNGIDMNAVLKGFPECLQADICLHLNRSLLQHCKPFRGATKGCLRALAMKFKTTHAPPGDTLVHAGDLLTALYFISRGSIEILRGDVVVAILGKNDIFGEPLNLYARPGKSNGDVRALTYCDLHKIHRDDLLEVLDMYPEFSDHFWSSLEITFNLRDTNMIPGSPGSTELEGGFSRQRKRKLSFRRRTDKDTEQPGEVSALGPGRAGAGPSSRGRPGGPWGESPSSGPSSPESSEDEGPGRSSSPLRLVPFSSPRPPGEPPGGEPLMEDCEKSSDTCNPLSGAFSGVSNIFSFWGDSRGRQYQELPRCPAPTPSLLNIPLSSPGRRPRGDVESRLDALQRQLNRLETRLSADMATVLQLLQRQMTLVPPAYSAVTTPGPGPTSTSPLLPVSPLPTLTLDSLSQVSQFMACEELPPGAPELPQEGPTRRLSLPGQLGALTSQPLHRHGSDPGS
Compound,Pim-1 % INH (1 μM) [1],Pim-2 % INH (1 μM) [2],Pim-3 % INH (1 μM) [3],Flt3wt % INH (1 μM) [4],CDK2/E % INH (1 μM) [5],DYRK1A % INH (1 μM) [6],IC50 ([7]; 72 hours),IC50 ([8]; 72 hours),IC50 ([9]; 72 hours),IC50 [13],inhibition at 1 µM [1],inhibition at 1 µM [2],inhibition at 1 µM [3],inhibition at 1 µM [4],inhibition at 1 µM [5],inhibition at 1 µM [6],"IC50 ([7]; Homo sapiens, MV4-11, 72 h)","IC50 ([8]; Homo sapiens, 72 h)","IC50 ([9]; Homo sapiens, HepG2, 72 h)","IC50 ([10]; Homo sapiens, JeKo-1)",also measured
CCn1c(N[C@H]2CCCNC2)nc2c([N+](=O)[O-])c(Br)c(Br)cc21 [Example 1AA],>95%,53%,>95%,11%,<5%,40%,1300 nM,4600 nM,2100 nM,1100 to 3300 nM,–,–,–,–,–,–,–,–,–,–,IC50 [10]: 1800 nM; IC50 [11]: 5500 nM; IC50 [12]: 2270 nM
CCn1c(NC2CCNC2)nc2c([N+](=O)[O-])c(Br)c(Br)cc21 (stereo not drawn) [Example 1AF],–,–,–,–,–,–,–,–,–,> 10000 nM,> 95%,23%,71%,< 5%,< 5%,47%,1200 nM,8500 nM,1800 nM,2300 nM,"IC50 ([11]; Homo sapiens, SW480): 5200 nM"
CC(C)n1c(N2CC[C@@H](N)C2)nc2c([N+](=O)[O-])c(Br)c(Br)cc21 [Example 1AY],>95%,89%,>95%,60%,–,87%,500 nM,1900 nM,1500 nM,–,–,–,–,–,–,–,–,–,–,–,IC50 [14]: 900 nM
COCCn1c(N2CCNCC2)nc2c([N+](=O)[O-])c(Br)c(Br)cc21 [Example 1BB],>95%,12%,65%,33%,29%,61%,700 nM,5400 nM,2000 nM,–,–,–,–,–,–,–,–,–,–,–,IC50 [14]: 3000 nM
CC(C)n1c(NC2CCC(N)CC2)nc2c([N+](=O)[O-])c(Br)c(Br)cc21 (stereo not drawn) [Example 1BC],–,–,–,<5%,<5%,–,–,–,–,3300 to 10000 nM,79%,16%,46%,–,–,14%,3200 nM,7900 nM,–,3000 nM,–
CC(C)n1c(NC2CCNC2)nc2c(C#N)c(Br)c(Br)cc21 (stereo not drawn) [Example 1BK],>95%,63%,92%,20%,<5%,48%,800 nM,–,5200 nM,> 10000 nM,–,–,–,–,–,–,–,–,–,–,IC50 [15]: 60 nM
CC(C)n1c(N2CCNCC2)nc2c(C#N)c(Br)c(Br)cc21 [Example 1BL],–,–,–,–,–,–,–,–,–,–,> 95%,33%,81%,54%,7%,75%,400 nM,2400 nM,1400 nM,–,"IC50 ([14]; Homo sapiens, MOLM-13): 1000 nM"
CCn1c(NC2CCCNCC2)nc2c([N+](=O)[O-])c(Br)c(Br)cc21 (stereo not drawn) [Example 1Q],–,–,–,–,–,–,–,–,–,3300 to 10000 nM,86%,22%,> 95%,< 5%,6%,11%,6900 nM,8200 nM,1100 nM,5400 nM,"IC50 ([11]; Homo sapiens, SW480): 5300 nM"
"COC(CN)CNc1nc2c([N+](=O)[O-])c(Br)c(Br)cc2n1C(C)C (stereo not drawn) [Example 22AB, N-(3-amino-2-methoxypropyl)-5,6-dibromo-4-nitro-1-(propan-2-yl)-1H-1,3-benzodiazol-2-amine]",–,–,–,–,–,–,–,–,–,3300 to 10000 nM,> 95%,31%,76%,< 5%,< 5%,17%,3200 nM,–,5100 nM,–,IC50 [12]: 2020 nM
